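Five concentrations, 48 hours, 96-well plates. Here, GI50 denotes the concentration required for 50% inhibition of growth. Definition used: TGI = concentration required for complete inhibition of growth.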
Columns and labels:
Test in all cases: NCI tumour cell line growth inhibition, 48 h
HOP-92 NSCLC = system: HOP-92 NSCLC
HCT-15 colon = system: HCT-15 colon
HS 578T breast = system: HS 578T breast
NCI/ADR-RES ovarian = system: NCI/ADR-RES ovarian
OVCAR-8 ovarian = system: OVCAR-8 ovarian
SF-268 CNS = system: SF-268 CNS
DU-145 prostate = system: DU-145 prostate
SR leukemia = system: SR leukemia
SK-MEL-5 melanoma = system: SK-MEL-5 melanoma
MCF7 breast = system: MCF7 breast
MDA-MB-435 = system: MDA-MB-435
SF-295 CNS = system: SF-295 CNS
NCI-H226 lung = system: NCI-H226 lung
SNB-75 CNS = system: SNB-75 CNS
786-0 renal = system: 786-0 renal
SNB-19 CNS = system: SNB-19 CNS
HOP-62 NSCLC = system: HOP-62 NSCLC
NCI-H23 lung = system: NCI-H23 lung
RPMI-8226 leukemia = system: RPMI-8226 leukemia
MOLT-4 leukemia = system: MOLT-4 leukemia
EKVX NSCLC = system: EKVX NSCLC
TK-10 renal = system: TK-10 renal
UACC-257 melanoma = system: UACC-257 melanoma
U251 CNS = system: U251 CNS
SK-MEL-2 melanoma = system: SK-MEL-2 melanoma
NCI-H460 lung = system: NCI-H460 lung
M14 melanoma = system: M14 melanoma
MALME-3M melanoma = system: MALME-3M melanoma
CCRF-CEM leukemia = system: CCRF-CEM leukemia
LOX IMVI melanoma = system: LOX IMVI melanoma
SN12C renal = system: SN12C renal
KM12 colon = system: KM12 colon
SF-539 CNS = system: SF-539 CNS
IGROV1 ovarian = system: IGROV1 ovarian
OVCAR-5 ovarian = system: OVCAR-5 ovarian
BT-549 breast = system: BT-549 breast
A549 NSCLC = system: A549 NSCLC
HCT-116 colon = system: HCT-116 colon
K-562 leukemia = system: K-562 leukemia
CAKI-1 renal = system: CAKI-1 renal
SW-620 colon = system: SW-620 colon
HL-60(TB) leukemia = system: HL-60(TB) leukemia
COLO 205 colon = system: COLO 205 colon
OVCAR-4 ovarian = system: OVCAR-4 ovarian
MDA-MB-231 breast = system: MDA-MB-231 breast
HCC-2998 colon = system: HCC-2998 colon
SK-MEL-28 melanoma = system: SK-MEL-28 melanoma
NCI-H522 lung = system: NCI-H522 lung
PC-3 prostate = system: PC-3 prostate
HT29 colon = system: HT29 colon
ACHN renal = system: ACHN renal

COc1ccc(C(=O)/C=C/c2cc3c(c(OC)c2)OCC(=O)N3)cc1
GI50 (HOP-92 NSCLC): 1.27 µM | TGI (HOP-92 NSCLC): 17.7 µM | GI50 (HCT-15 colon): 1.92 µM | TGI (HCT-15 colon): > 100 µM | GI50 (HS 578T breast): 3.63 µM | TGI (HS 578T breast): > 100 µM | GI50 (NCI/ADR-RES ovarian): 3.14 µM | TGI (NCI/ADR-RES ovarian): > 100 µM | GI50 (OVCAR-8 ovarian): 2.85 µM | TGI (OVCAR-8 ovarian): > 100 µM | GI50 (SF-268 CNS): 3.42 µM | TGI (SF-268 CNS): > 100 µM | GI50 (DU-145 prostate): 2.74 µM | TGI (DU-145 prostate): > 100 µM | GI50 (SR leukemia): 1.05 µM | TGI (SR leukemia): > 100 µM | GI50 (SK-MEL-5 melanoma): 2.88 µM | TGI (SK-MEL-5 melanoma): > 100 µM | GI50 (MCF7 breast): 2.32 µM | TGI (MCF7 breast): > 100 µM | GI50 (MDA-MB-435): 3.11 µM | TGI (MDA-MB-435): > 100 µM | GI50 (SF-295 CNS): 4.57 µM | TGI (SF-295 CNS): > 100 µM | GI50 (NCI-H226 lung): 3.88 µM | TGI (NCI-H226 lung): > 100 µM | GI50 (SNB-75 CNS): 1.66 µM | TGI (SNB-75 CNS): 11.5 µM | GI50 (786-0 renal): 3.36 µM | TGI (786-0 renal): > 100 µM | GI50 (SNB-19 CNS): 3.26 µM | TGI (SNB-19 CNS): > 100 µM | GI50 (HOP-62 NSCLC): 3.73 µM | TGI (HOP-62 NSCLC): > 100 µM

O=C(NNC(c1ccccc1)C(F)(F)F)c1ccncc1 (centres undefined)
TGI (HOP-92 NSCLC): > 100 µM | TGI (HCT-15 colon): > 100 µM | TGI (NCI-H23 lung): > 100 µM | TGI (RPMI-8226 leukemia): > 100 µM | TGI (MOLT-4 leukemia): > 100 µM | TGI (EKVX NSCLC): > 100 µM | TGI (TK-10 renal): > 100 µM | TGI (UACC-257 melanoma): > 100 µM | TGI (U251 CNS): > 100 µM | TGI (SK-MEL-2 melanoma): > 100 µM | TGI (NCI-H460 lung): > 100 µM | TGI (M14 melanoma): > 100 µM | TGI (NCI/ADR-RES ovarian): > 100 µM | TGI (MALME-3M melanoma): > 100 µM | TGI (CCRF-CEM leukemia): > 100 µM | TGI (LOX IMVI melanoma): > 100 µM | TGI (SN12C renal): > 100 µM | TGI (KM12 colon): > 100 µM | TGI (SF-539 CNS): > 100 µM | TGI (OVCAR-8 ovarian): > 100 µM | TGI (SF-268 CNS): > 100 µM | TGI (DU-145 prostate): > 100 µM | TGI (SR leukemia): > 100 µM | TGI (IGROV1 ovarian): > 100 µM | TGI (SK-MEL-5 melanoma): > 100 µM | TGI (MCF7 breast): > 100 µM | TGI (OVCAR-5 ovarian): > 100 µM | TGI (BT-549 breast): > 100 µM | TGI (MDA-MB-435): > 100 µM | TGI (SF-295 CNS): > 100 µM | TGI (A549 NSCLC): > 100 µM | TGI (NCI-H226 lung): > 100 µM | TGI (HCT-116 colon): > 100 µM | TGI (K-562 leukemia): > 100 µM | TGI (CAKI-1 renal): > 100 µM | TGI (SW-620 colon): > 100 µM | TGI (SNB-75 CNS): > 100 µM | TGI (HL-60(TB) leukemia): > 100 µM | TGI (COLO 205 colon): > 100 µM | TGI (786-0 renal): > 100 µM | TGI (OVCAR-4 ovarian): > 100 µM | TGI (SNB-19 CNS): > 100 µM | TGI (MDA-MB-231 breast): > 100 µM | TGI (HCC-2998 colon): > 100 µM | TGI (SK-MEL-28 melanoma): > 100 µM | TGI (NCI-H522 lung): > 100 µM | TGI (HOP-62 NSCLC): > 100 µM | TGI (PC-3 prostate): > 100 µM | TGI (HT29 colon): > 100 µM | TGI (ACHN renal): > 100 µM

— PubChem BioAssay (NCI)
